Results taken from patent publication US20250333418A1, “PURINE COMPOUNDS, COMPOSITIONS COMPRISING THEM AND USES THEREOF” (Novo Nordisk A/S, priority 2022, published 2025).

How the values were obtained:
human CB1 receptor [1] = target: T1, human CB1 receptor (Homo sapiens, UniProt P21554); assay: bioSensAll GAPL-Gi2 BRET biosensor assay in HEK293 cells transfected with hCB1; test compound added before EC75-80 of agonist CP55,940 (0.1 nM); assay type: cell-based; details: vs CP55,940 0.1 nM (EC75-80), read-out: CB1 wt Gi2 IC50
T1 construct: expressed in transfected cells; host or cells: HEK293
T1 sequence (P21554 whole entry): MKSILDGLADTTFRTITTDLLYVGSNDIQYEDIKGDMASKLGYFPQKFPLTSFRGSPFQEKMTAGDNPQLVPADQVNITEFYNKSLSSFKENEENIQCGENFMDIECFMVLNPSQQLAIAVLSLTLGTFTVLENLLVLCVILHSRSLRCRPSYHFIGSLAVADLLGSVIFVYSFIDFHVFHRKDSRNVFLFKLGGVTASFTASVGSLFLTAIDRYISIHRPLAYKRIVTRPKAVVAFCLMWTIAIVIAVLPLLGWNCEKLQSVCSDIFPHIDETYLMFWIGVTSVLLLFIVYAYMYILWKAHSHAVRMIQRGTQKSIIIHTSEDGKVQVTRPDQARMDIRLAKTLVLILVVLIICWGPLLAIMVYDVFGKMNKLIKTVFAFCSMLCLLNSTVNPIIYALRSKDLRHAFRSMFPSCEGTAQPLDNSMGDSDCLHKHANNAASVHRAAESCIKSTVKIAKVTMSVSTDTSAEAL
In short: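 Test compounds at 12 doses up to 600 nM preceded a 0.1 nM CP55,940 challenge in hCB1/GAPL-Gi2 HEK293 cells. After overnight 37° C incubation, methoxy e-coelenterazine (2 µM final) was added and the 515/400 nm BRET ratio normalized to positive and negative controls.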

human CB1 receptor [2] = target: T1, human CB1 receptor; assay: bioSensAll β-arrestin2 plasma membrane translocation (+GRK2) BRET biosensor assay in HEK293 cells transfected with hCB1; test compound added before EC75-80 of agonist CP55,940 (100 nM); assay type: cell-based; details: βArrestin2 (+GRK2) BRET biosensor, vs CP55,940 100 nM (EC75-80), read-out: CB1 wt βarr2 IC50
In short: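 HEK293 cells co-transfected with hCB1 and β-arrestin2 PM-translocation BRET biosensor (+GRK2); 48 h post-transfection in HBSS, test compound (0–600 nM, 12 points) added 3–5 min before CP55,940 at 100 nM (EC75-80). Overnight incubation at 37 °C; BRET (515/400 nm) read after 2 µM e-coelenterazine Prolume Purple, standardized to controls.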

SMILES | IC50 (human CB1 receptor [1]) [nM] | IC50 (human CB1 receptor [2]) [nM]
CCOC1(C(N)=O)CCN(c2nc(NCC(C)(C)O)nc3c2nc(-c2ccc(C#N)nc2)n3-c2ccc(Cl)cc2)CC1 [Compound 132, 1-[9-(4-chlorophenyl)-8-(6-cyano-3-pyridyl)-2-[(2-hydroxy-2-methyl-propyl)amino]purin-6-yl]-4-ethoxy-piperidine-4-carboxamide] | 17.8 | > 5000
C[C@@H](CO)N(C)c1nc(N2CCC(C)(C(N)=O)CC2)c2nc(-c3ccccc3Cl)n(-c3ccc(Cl)cc3)c2n1 [Compound 66, 1-[8-(2-chlorophenyl)-9-(4-chlorophenyl)-2-[[(1S)-2-hydroxy-1-methyl-ethyl]-methyl-amino]purin-6-yl]-4-methyl-piperidine-4-carboxamide] | 0.586 | 1.45
CN(CCO)c1nc(N2CCC(C)(C(N)=O)CC2)c2nc(-c3ncccc3Cl)n(-c3ccc(Cl)cc3)c2n1 [Compound 49, 1-[9-(4-chlorophenyl)-8-(3-chloro-2-pyridyl)-2-[2-hydroxyethyl(methyl)amino]purin-6-yl]-4-methyl-piperidine-4-carboxamide] | 2.6 | 19.3
C[C@@H]1COCCN1c1nc(OCC(C)(C)O)nc2c1nc(-c1ccccc1Cl)n2-c1ccc(Cl)cc1 [Compound 212] | 2.51 | 25.9
CC(C)Nc1nc(OCC(C)(C)O)nc2c1nc(-c1ccccc1Cl)n2-c1ccc(Cl)cc1 [Compound 87] | 3.1 | 21.6
CN(CC(C)(C)O)c1nc(N2CCC(C)(C(N)=O)CC2)c2nc(-c3ccc(C#N)nc3)n(-c3ccc(Cl)cc3)c2n1 [Compound 110, 1-[9-(4-chlorophenyl)-8-(6-cyano-3-pyridyl)-2-[(2-hydroxy-2-methyl-propyl)-methyl-amino]purin-6-yl]-4-methyl-piperidine-4-carboxamide] | 6.33 | 13
CO[C@H]1CCN(c2nc(N3CCC(C)(C(N)=O)CC3)c3nc(-c4ccccc4Cl)n(-c4ccc(Cl)cc4)c3n2)C1 [Compound 92, 1-[8-(2-chlorophenyl)-9-(4-chlorophenyl)-2-[(3S)-3-methoxypyrrolidin-1-yl]purin-6-yl]-4-methyl-piperidine-4-carboxamide] | 1.71 | 7.93
CN(CCO)c1nc(N2CCC(C)(C(N)=O)CC2)c2nc(-c3ccccc3Cl)n(-c3ccc(Cl)cc3)c2n1 [Compound 19, 1-[8-(2-chlorophenyl)-9-(4-chlorophenyl)-2-[2-hydroxyethyl(methyl)amino]purin-6-yl]-4-methyl-piperidine-4-carboxamide] | 0.187 | 1.07
CC(C)(O)COc1nc(N2CCS(=O)(=O)CC2)c2nc(-c3ccccc3Cl)n(-c3ccc(Cl)cc3)c2n1 [Compound 209] | 1.34 | 14.7
CN(C)C(=O)c1nc(N2CCC(C)(C(N)=O)CC2)c2nc(-c3ccccc3Cl)n(-c3ccc(Cl)cc3)c2n1 [Compound 2, 6-(4-carbamoyl-4-methyl-1-piperidyl)-8-(2-chlorophenyl)-9-(4-chlorophenyl)-N,N-dimethyl-purine-2-carboxamide] | 10.5 | 63.5
CN(CC1(C)COC1)c1nc(-c2ccc(C(F)(F)F)nc2)c2nc(-c3ccccc3Cl)n(-c3ccc(Cl)cc3)c2n1 [Compound 126] | 8.07 | 20.7
CC(C)C(=O)Nc1nc(N2CCC(C)(C#N)CC2)c2nc(-c3ccccc3Cl)n(-c3ccc(Cl)cc3)c2n1 [Compound 89, N-[8-(2-chlorophenyl)-9-(4-chlorophenyl)-6-(4-cyano-4-methyl-1-piperidyl)purin-2-yl]-2-methyl-propanamide] | 0.789 | 2.31
CC(C)(O)COc1nc(N2CC3CCC(C2)O3)c2nc(-c3ccccc3Cl)n(-c3ccc(Cl)cc3)c2n1 [Compound 214] | 1.09 | 6.06
OC[C@@H]1CN(c2nc(N3CCC[C@H]3CO)nc3c2nc(-c2ccccc2Cl)n3-c2ccc(Cl)cc2)CCO1 [Compound 169] | 0.532 | 2.04
CC(C)n1cncc1-c1nc2c(N3CCC(C)(C(N)=O)CC3)nc(N(C)CCO)nc2n1-c1ccc(Cl)cc1 [Compound 59, 1-[9-(4-chlorophenyl)-2-[2-hydroxyethyl(methyl)amino]-8-(3-isopropylimidazol-4-yl)purin-6-yl]-4-methyl-piperidine-4-carboxamide] | > 5000 | > 5000
CCNC1(C(N)=O)CCN(c2nc(C(N)=O)nc3c2nc(-c2ccccc2Cl)n3-c2ccc(Cl)cc2)CC1 [Compound 147, 6-(4-carbamoyl-4-(ethylamino)piperidin-1-yl)-8-(2-chlorophenyl)-9-(4-chlorophenyl)-9H-purine-2-carboxamide] | 4.1 | 88.8

SMILES | IC50 (human CB1 receptor [1]) [nM] | IC50 (human CB1 receptor [2]) [nM]
CC1(C(N)=O)CCN(c2nc(N3C[C@H]4CCC[C@H]4C3)nc3c2nc(-c2ccccc2Cl)n3-c2ccc(Cl)cc2)CC1 [Compound 14, 1-[2-[(3aS,6aR)-3,3a,4,5,6,6a-hexahydro-1H-cyclopenta[c]pyrrol-2-yl]-8-(2-chlorophenyl)-9-(4-chlorophenyl)purin-6-yl]-4-methyl-piperidine-4-carboxamide] | 6.5 | 34.5
C[C@H](CO)N(C)c1nc(N2CCC(C)(C(N)=O)CC2)c2nc(-c3ccccc3Cl)n(-c3ccc(Cl)cc3)c2n1 [Compound 67, 1-[8-(2-chlorophenyl)-9-(4-chlorophenyl)-2-[[(1R)-2-hydroxy-1-methyl-ethyl]-methyl-amino]purin-6-yl]-4-methyl-piperidine-4-carboxamide] | 1.27 | 4.38
CCOC1(C(N)=O)CCCN(c2nc(OCC(C)(C)O)nc3c2nc(-c2ccccc2Cl)n3-c2ccc(Cl)cc2)C1 (single isomer, unassigned) [Compound 217] | 27 | 73.7
C[C@H](O)COc1nc(N2CCC(C)(C(N)=O)CC2)c2nc(-c3ccccc3Cl)n(-c3ccc(Cl)cc3)c2n1 [Compound 80, 1-[8-(2-chlorophenyl)-9-(4-chlorophenyl)-2-[(2S)-2-hydroxypropoxy]purin-6-yl]-4-methyl-pi-peridine-4-carboxamide] | 1.02 | 5.09
CC(C)(O)COc1nc(N2CCC(C)(C(N)=O)CC2)c2nc(-c3ccncc3Cl)n(-c3ccc(Cl)cc3)c2n1 [Compound 121, 1-[9-(4-chlorophenyl)-8-(3-chloro-4-pyridyl)-2-(2-hydroxy-2-methyl-propoxy)purin-6-yl]-4-methyl-piperidine-4-carboxamide] | 2.6 | 17
CCNC1(C(N)=O)CCN(c2nc(NC(C)=O)nc3c2nc(-c2ccccc2Cl)n3-c2ccc(Cl)cc2)CC1 [Compound 145] | 0.973 | 3
CN(C)c1ccc(-c2nc3c(N4CCC(C)(C(N)=O)CC4)nc(OCC(C)(C)O)nc3n2-c2ccc(Cl)cc2)cn1 [Compound 116, 1-[9-(4-chlorophenyl)-8-[6-(dimethylamino)-3-pyridyl]-2-(2-hydroxy-2-methyl-propoxy)purin-6-yl]-4-methyl-piperidine-4-carboxamide] | 68.8 | > 5000
CC1(C(N)=O)CCN(c2nc(N3CCC[C@@H]3CO)nc3c2nc(-c2ccccc2Cl)n3-c2ccc(Cl)cc2)CC1 [Compound 13, 1-[8-(2-chlorophenyl)-9-(4-chlorophenyl)-2-[(2R)-2-(hydroxymethyl)pyrrolidin-1-yl]purin-6-yl]-4-methyl-piperidine-4-carboxamide] | 7.02 | > 5000
CN(CCO)c1nc(N2CCC(F)(F)CC2)c2nc(-c3ccccc3Cl)n(-c3ccc(Cl)cc3)c2n1 [Compound 184] | 0.24 | 0.889
CN(CC1(O)CC1)c1nc(N2CCC(C)(C(N)=O)CC2)c2nc(-c3ccccc3Cl)n(-c3ccc(Cl)cc3)c2n1 [Compound 41, 1-[8-(2-chlorophenyl)-9-(4-chlorophenyl)-2-[(1-hydroxycyclopropyl)methyl-methyl-amino]purin-6-yl]-4-methyl-piperidine-4-carboxamide] | 1.65 | 7.33
CC(C)N1CCN(c2nc(OCC(C)(C)O)nc3c2nc(-c2ccccc2Cl)n3-c2ccc(Cl)cc2)CC1 [Compound 96] | 3.43 | 5.68
CC(C)(O)CNc1nc(N2CCC(C)(C(N)=O)CC2)c2nc(-c3ccc(C#N)nc3)n(-c3ccc(Cl)cc3)c2n1 [Compound 111, 1-[9-(4-chlorophenyl)-8-(6-cyano-3-pyridyl)-2-[(2-hydroxy-2-methyl-propyl)amino]purin-6-yl]-4-methyl-piperidine-4-carboxamide] | 18.4 | 53.7
CC1(C(N)=O)CCN(c2nc(N3C[C@H]4C[C@H]4C3)nc3c2nc(-c2ccccc2Cl)n3-c2ccc(Cl)cc2)CC1 [Compound 15, 1-[2-[(1R,5S)-3-azabicyclo[3.1.0]hexan-3-yl]-8-(2-chlorophenyl)-9-(4-chlorophenyl)purin-6-yl]-4-methyl-piperidine-4-carboxamide] | 1.29 | 8.03
CC(=O)N1CCN(c2nc(OCC(C)(C)O)nc3c2nc(-c2ccccc2Cl)n3-c2ccc(Cl)cc2)CC1 [Compound 222] | 1.56 | 7.91
CC(O)COc1nc(N2CCC(C(F)(F)F)CC2)c2nc(-c3ccccc3Cl)n(-c3ccc(Cl)cc3)c2n1 (single isomer, unassigned) [Compound 25, 1-[8-(2-chlorophenyl)-9-(4-chlorophenyl)-6-[4-(trifluoromethyl)-1-piperidyl]purin-2-yl]oxypropan-2-ol] | 0.706 | 2.06
